Three molecules from US9615581B2, “Stable needle-shaped crystals of natamycin” (DSM IP ASSETS B.V., priority 2004, dated 2017) can be followed below.

Type in all cases: physicochemical
Data set [1] can be described thus: Stability of recrystallized natamycin dispersion (rest activity by HPLC). Conditions: for Found natamycin activity (%): dispersion made according to Example 1. The protocol: This example describes the method that was used to analyze the amount of active natamycin in a water-based mixture of several components.
The method used was a HPLC analysis based on the International Dairy Federation (Provisional IDF Standard 140, 1992) with a Lichrosorb RP 8 column.
Detection was at 303 nm UV with a range of 0.1-4 mg/L with an injection volume of 20 μl. Sample preparation was carried out by weighing 2 g of prepared formulation with an accuracy of 1 mg in a measuring flask. 4 ml demineralized water (demiwater) was added and the mixture was stirred for 15 minutes to get a homogeneous suspension.
Subsequently, 80 ml ethanol was added and the mixture was stirred for 10 minutes.
After ultrasonic treatment, the solution was filled up to 100 ml with demiwater and then diluted and/or filtered (0.2 μm) before injecting. The amount of active natamycin was calculated as ppm against a series of standards.
This example describes the stability of recrystallized natamycin, a natamycin dispersion is made according to Example 1 and followed in time on stability.

The nature of data set [2]: Sedimentation (demixing) of natamycin dispersions in tapwater in glass tubes. Conditions: 1.5 g Delvocid equivalent in 1000 g tapwater, glass tube. Here is the method: This example describes the test performed to analyze the sedimentation differences. 1.5 g Delvocid® was added to 998.5 gram tapwater and dispersed well by an electric top stirrer, type RW 20 DZM, from Janke & Kunkel equipped with a rushton stirrer. 1.5 gram of Delvocid® made according to Example 1 was mixed with tapwater to a final weight of 1000 gram by an electric top stirrer, type RW 20 DZM, from Janke & Kunkel equipped with a rushton stirrer. Both homogeneous mixtures were poured in glass tubes and observed in time on demixing.

Data set [3] is described as follows: Resuspendability of settled natamycin in a low viscous dispersion. Conditions: not touched for 26 days, glass tubes turned around once. The protocol: This example describes the test that was performed to analyze the resuspendability of settled natamycin in a low viscous dispersion. 1.5 gram Delvocid® was added to 998.5 gram tapwater and dispersed well by an electric top stirrer, type RW 20 DZM, from Janke & Kunkel equipped with a rushton stirrer. An amount equal to 1.5 gram Delvocid® made according to Example 1 was mixed with tapwater to a final weight of 1000 gram by an electric top stirrer, type RW 20 DZM, from Janke & Kunkel equipped with a rushton stirrer. Both homogeneous mixtures were poured in glass tubes and not touched for 26 days.

Data set [4] is described as follows: Crystal form stability of needle-shaped crystal suspension on storage. Conditions: 6 months of storage of suspension at 10° C. The source says: As discussed above a sediment of the needle-shaped crystals of the present invention can be easily brought back in the suspended state without exclusive stirring or shaking. Another advantage of the needle-shaped crystals is that this crystal form is stable.

Data set [5] can be described thus: Dissolution of natamycin in water as a function of pH. The protocol:
According to another aspect of the present invention, there is provided a process to produce the needle-shaped crystals of the invention. In the first step of this process, natamycin is dissolved in an aqueous solution. The solution comprises at least 80 wt %, preferably at least 90 wt % more preferably at least 95 wt % and still more preferably at least 98 wt % and preferably at least 99 wt % water as solvent. […] Preferably, natamycin is dissolved at a pH ranged between 10 and 14, more preferably at a pH ranged between 11 and 13. In general, natamycin of a purity of more than 90 wt % (including hydrate) preferably of a purity of 95% is used.

The structures appear in SMILES notation.

Regarding `C[C@@H]1C/C=C/C=C/C=C/C=C/[C@H](O[C@@H]2O[C@H](C)[C@@H](O)[C@H](N)[C@@H]2O)C[C@@H]2O[C@](O)(C[C@@H](O)C[C@H]3O[C@@H]3/C=C/C(=O)O1)C[C@H](O)[C@H]2C(=O)O` [Recrystallized natamycin, natamycin], in data set [1] (for at least six months), the stability result was “very high”. For the same molecule, the “Found natamycin activity (%)” value in data set [1] (incubation time 0 months) was found to be 100%; in data set [1] (incubation time 1 month) it was 100%; in data set [1] (incubation time 2 months) it was 99%; in data set [1] (incubation time 4 months), 100%; in data set [1] (incubation time 6 months), 98%. The demixing observed result is given as “Homogeneous” in data set [2] (time 0 minutes); “Homogeneous” in data set [2] (time 40 minutes); “Homogeneous” in data set [2] (time 60 minutes); “Homogeneous” in data set [2] (time 110 minutes); “Homogeneous” in data set [2] (time 180 minutes); “Start demixing observed” in data set [2] (time 4320 minutes). Also, the resuspendability of pellet result in data set [3] was “almost completely resuspended”. Also, in data set [4], the “crystal form and mean length after storage” value is “still contained needle-shaped crystals having the same mean length”.
Turning to `C[C@@H]1C/C=C/C=C/C=C/C=C/[C@H](O[C@@H]2O[C@H](C)[C@@H](O)[C@H](N)[C@@H]2O)C[C@@H]2O[C@](O)(C[C@@H](O)C[C@H]3O[C@@H]3/C=C/C(=O)O1)C[C@H](O)[C@H]2C(=O)O` [Standard natamycin, natamycin], the demixing observed entry is “Homogeneous” in data set [2] (time 0 minutes); “Start demixing observed” in data set [2] (time 40 minutes); “Two layers observed” in data set [2] (time 60 minutes); “Pellet formation” in data set [2] (time 110 minutes); “Pellet formation” in data set [2] (time 180 minutes); “Pellet and clear top layer” in data set [2] (time 4320 minutes). The resuspendability of pellet entry in data set [3] is “remained a solid pellet”.
Turning to `C[C@@H]1C/C=C/C=C/C=C/C=C/[C@H](O[C@@H]2O[C@H](C)[C@@H](O)[C@H](N)[C@@H]2O)C[C@@H]2O[C@](O)(C[C@@H](O)C[C@H]3O[C@@H]3/C=C/C(=O)O1)C[C@H](O)[C@H]2C(=O)O` [natamycin], the results for the dissolution in water entry in data set [5] (low pH (lower than 4.0) or high pH (above 10.0)) and in data set [5] (neutral pH) were “easily dissolve” and “hardly dissolve”, respectively.
